Patent publication US9416154B2, “5′-substituted nucleoside derivatives and methods of use thereof for the treatment of viral diseases” (priority 2011, dated 2016)
Read-outs that look alike come from different tables or passages of the source.

Assays:
[1] = system: HCV replicon (1b); experiment: Cell-based HCV replicon assay
Procedure: To measure cell-based anti-HCV activity of selected compounds of the present invention, replicon cells were seeded at 5000 cells/well in 96-well collagen I-coated Nunc plates in the presence of the test compound. Various concentrations of test compound, typically in 10 serial 2-fold dilutions, were added to the assay mixture, with the starting concentration ranging from 250 μM to 1 μM. The final concentration of dimethylsulfoxide was 0.5%, fetal bovine serum was 5%, in the assay media. Cells were harvested on day 3 by the addition of 1× cell lysis buffer (Ambion cat #8721). The replicon RNA level was measured using real time PCR (Taqman assay). The amplicon was located in 5B. The PCR primers were: 5B.2F, ATGGACAGGCGCCCTGA (SEQ ID. NO. 1); 5B.2R, […] (SEQ ID. NO. 2); the probe sequence was FAM-labeled CACGCCATGCGCTGCGG (SEQ ID. NO. 3). GAPDH RNA was used as endogenous control and was amplified in the same reaction as NS5B (multiplex PCR) using primers and VIC-labeled probe recommended by the manufacturer (PE Applied Biosystem). The real-time RT-PCR reactions were run on ABI PRISM 7900HT Sequence Detection System using the following program: 48° C. for 30 minutes, 95° C. for 10 minutes, 40 cycles of 95° C. for 15 sec, 60° C. for 1 minute. The ΔCT values (CT5B-CTGAPDH) were plotted against the concentration of test compound and fitted to the sigmoid dose-response model using XLfit4 (MDL). EC50 was defined as the concentration of inhibitor necessary to achieve ΔCT=1 over the projected baseline; EC90 the concentration necessary to achieve ΔCT=3.2 over the baseline. Alternatively, to quantitate the absolute amount of replicon RNA, a standard curve was established by including serially diluted T7 transcripts of replicon RNA in the Taqman assay. All Taqman reagents were from PE Applied Biosystems. Such an assay procedure was described in detail in e.g. Malcolm et al., Antimicrobial Agents and Chemotherapy 50: 1013-1020 (2006).

[2] = system: Huh 7 hepatoma cells containing the subgenomic HCV replicon; experiment: Cytotoxicity (MTS assay or GAPDH RNA readout); type: cell-based
Procedure: (§1) The effect of the nucleoside derivatives on the proliferation and metabolism of Huh 7 hepatoma cells containing the subgenomic HCV replicon was measured using the MTS assay. Briefly, cells were seeded and dosed with compounds exactly as described in Example 13 above, for replicon EC50 determination. After a 3-day compound incubation period, the MTS assay was performed in accordance with the manufacturer's protocol for the CellTiter 96 Aqueous One Solution Cell Proliferation Assay (Promega, Catalog #G358). Alternatively, after a 3-day compound incubation, the amount of glyceraldehyde-3-phosphate dehydrogenase (GAPDH) RNA in replicon-containing Huh 7 cells was determined using qRT-PCR. CC50 values were derived from 10 serial 2-fold dilutions of the inhibitor in duplicate that yielded 50% inhibition of the MTS or GAPDH RNA readout by comparison with cells treated with vehicle control.

[3] = Cytotoxicity (MTS assay or GAPDH RNA readout); type: cell-based; details: human, replicon-containing Huh 7 cells, 3-day incubation, MTS or GAPDH RNA readout; read-out: 1b CC50
Procedure: as §1

[4] = replicon cells, 3-day incubation, replicon RNA by real time PCR (Taqman), read-out: 1b EC50
[5] = replicon-containing Huh 7 cells, 3-day incubation, MTS or GAPDH RNA readout, read-out: 1b CC50
[6] = Hepatitis C virus, 72 h, replicon cells, 3-day incubation, replicon RNA by real time PCR (Taqman), read-out: 1b EC50
[7] = Hepatitis C virus, 72 h, read-out: 1b EC50, replicon cells, 3-day incubation, replicon RNA by real time PCR (Taqman)

C[C@@H](O)[C@H]1O[C@@H](n2ccc3c(N)ncnc32)[C@](C)(O)[C@@H]1O [Compound 1]
EC50 [1, 4]: 61 µM
CC50 [2]: 78 µM

CCCCOC(=O)[C@H](C)NP(=O)(Oc1cccc2ccccc12)O[C@H](C)[C@H]1O[C@@H](n2ccc3c(N)ncnc32)[C@](C)(O)[C@@H]1O (some centres unmarked) [Compound 2]
EC50 [1, 4]: 33 µM
CC50 [2, 5]: 44 µM

C[C@@H](O)[C@H]1O[C@@H](n2cc(F)c3c(N)ncnc32)[C@](C)(O)[C@@H]1O [Compound 3]
EC50 [1, 6]: > 100 µM
CC50 at 3 day [3]: > 100 µM

CCCCOC(=O)[C@H](C)NP(=O)(Oc1cccc2ccccc12)O[C@H](C)[C@H]1O[C@@H](n2cc(F)c3c(N)ncnc32)[C@](C)(O)[C@@H]1O (some centres unmarked) [Compound 4]
EC50 [1, 7]: > 100 µM
CC50 at 3 day [3]: 84 µM

CC[C@@H](O)[C@H]1O[C@@H](n2cc(F)c3c(N)ncnc32)[C@](C)(O)[C@@H]1O [Compound 5]
EC50 [1, 6]: 23 µM
CC50 at 3 day [3]: 24 µM

CCCCOC(=O)[C@H](C)NP(=O)(Oc1cccc2ccccc12)O[C@H](CC)[C@H]1O[C@@H](n2cc(F)c3c(N)ncnc32)[C@](C)(O)[C@@H]1O (some centres unmarked) [Compound 6]
EC50 [1, 7]: 9.3 µM
CC50 at 3 day [3]: 5.7 µM

CC[C@@H](O)[C@H]1O[C@@H](n2ccc3c(N)ncnc32)[C@](C)(O)[C@@H]1O [Compound 7]
EC50 [1, 6]: > 100 µM
CC50 at 3 day [3]: > 100 µM

CCCCOC(=O)[C@H](C)NP(=O)(Oc1cccc2ccccc12)O[C@H](CC)[C@H]1O[C@@H](n2ccc3c(N)ncnc32)[C@](C)(O)[C@@H]1O (some centres unmarked) [Compound 8]
EC50 [1, 7]: 13 µM
CC50 at 3 day [3]: 30 µM

C[C@H](O)[C@H]1O[C@@H](n2cc(F)c3c(N)ncnc32)[C@](C)(O)[C@@H]1O [Compound 9]
EC50 [1, 4]: > 100 µM
CC50 [2]: > 100 µM

CC[C@@H](OP(=O)(N[C@@H](C)C(=O)OC)Oc1ccccc1)[C@H]1O[C@@H](n2cc(F)c3c(N)ncnc32)[C@](C)(O)[C@@H]1O (some centres unmarked) [Compound 10]
EC50 [1, 7]: 15 µM
CC50 at 3 day [3]: 20 µM

COC(=O)[C@H](C)NP(=O)(Oc1ccccc1)O[C@H](C)[C@H]1O[C@@H](n2cc(F)c3c(N)ncnc32)[C@](C)(O)[C@@H]1O (some centres unmarked) [Compound 11]
EC50 [1, 7]: 37 µM
CC50 at 3 day [3]: > 100 µM

COC(=O)[C@H](C)NP(=O)(Oc1ccccc1)O[C@@H](C)[C@H]1O[C@@H](n2cc(F)c3c(N)ncnc32)[C@](C)(O)[C@@H]1O (some centres unmarked) [Compound 12]
EC50 [1, 7]: 39 µM
CC50 at 3 day [3]: > 100 µM

CC(O)[C@H]1O[C@@H](n2cc(I)c3c(N)ncnc32)[C@](C)(F)[C@@H]1O (some centres unmarked) [Compound 13]
EC50 [1, 4]: 58 µM
CC50 [2]: 30 µM

CC(O)[C@H]1O[C@@H](n2ccc3c(N)ncnc32)[C@](C)(F)[C@@H]1O (some centres unmarked) [Compound 14]
EC50 [1, 6]: > 100 µM
CC50 at 3 day [3]: > 100 µM

CCOC(=O)[C@H](C)NP(=O)(Oc1ccccc1)OC(C)[C@H]1O[C@@H](n2ccc3c(N)ncnc32)[C@](C)(F)[C@@H]1O (some centres unmarked) [Compound 16]
EC50 [1, 4]: > 100 µM
CC50 [2]: > 100 µM

CC(C)OC(=O)[C@H](C)NP(=O)(Oc1ccccc1)OC(C)[C@H]1O[C@@H](n2ccc3c(N)ncnc32)[C@](C)(F)[C@@H]1O (some centres unmarked) [Compound 17]
EC50 [1, 7]: > 100 µM
CC50 at 3 day [3]: > 100 µM

CCOC(=O)[C@H](C)NP(=O)(Oc1cccc2ccccc12)OC(C)[C@H]1O[C@@H](n2ccc3c(N)ncnc32)[C@](C)(F)[C@@H]1O (some centres unmarked) [Compound 18]
EC50 [1, 7]: > 100 µM
CC50 at 3 day [3]: > 100 µM

CC(C)OC(=O)[C@H](C)NP(=O)(Oc1cccc2ccccc12)OC(C)[C@H]1O[C@@H](n2ccc3c(N)ncnc32)[C@](C)(F)[C@@H]1O (some centres unmarked) [Compound 19]
EC50 [1, 7]: > 20 µM
CC50 at 3 day [3]: > 20 µM

CCOC(=O)[C@H](C)NP(=O)(Oc1ccc(Cl)cc1)OC(C)[C@H]1O[C@@H](n2ccc3c(N)ncnc32)[C@](C)(F)[C@@H]1O (some centres unmarked) [Compound 20]
EC50 [1, 7]: > 100 µM
CC50 at 3 day [3]: > 100 µM

CC(C)OC(=O)[C@H](C)NP(=O)(Oc1ccc(Cl)cc1)OC(C)[C@H]1O[C@@H](n2ccc3c(N)ncnc32)[C@](C)(F)[C@@H]1O (some centres unmarked) [Compound 21]
EC50 [1, 7]: > 100 µM
CC50 at 3 day [3]: > 100 µM

CCOC(=O)[C@H](C)NP(=O)(Oc1ccccc1Cl)OC(C)[C@H]1O[C@@H](n2ccc3c(N)ncnc32)[C@](C)(F)[C@@H]1O (some centres unmarked) [Compound 22]
EC50 [1, 7]: > 100 µM
CC50 at 3 day [3]: > 100 µM

CC(C)OC(=O)[C@H](C)NP(=O)(Oc1ccccc1Cl)OC(C)[C@H]1O[C@@H](n2ccc3c(N)ncnc32)[C@](C)(F)[C@@H]1O (some centres unmarked) [Compound 23]
EC50 [1, 7]: > 100 µM
CC50 at 3 day [3]: > 100 µM

CC(O)C1O[C@@H](n2cc(F)c3c(N)ncnc32)[C@](C)(F)[C@@H]1O (some centres unmarked) [Compound 24]
EC50 [1, 4]: > 100 µM
CC50 [2, 5]: > 100 µM

C[C@H](O)C1O[C@@H](n2cc(F)c3c(N)ncnc32)[C@](C)(F)[C@@H]1O (some centres unmarked) [Compound 25]
EC50 [1, 4]: > 100 µM
CC50 [2, 5]: > 100 µM

C[C@@H](O)C1O[C@@H](n2cc(F)c3c(N)ncnc32)[C@](C)(F)[C@@H]1O (some centres unmarked) [Compound 26]
EC50 [1, 4]: > 100 µM
CC50 [2]: > 100 µM

C[C@@H](O)C1O[C@@H](n2ccc3c(N)ncnc32)[C@](C)(O)[C@@H]1O (some centres unmarked) [Compound 27]
EC50 [1, 4]: > 100 µM
CC50 [2, 5]: > 100 µM

C[C@H](O)C1O[C@@H](n2ccc3c(N)ncnc32)[C@](C)(O)[C@@H]1O (some centres unmarked) [Compound 28]
EC50 [1, 4]: > 100 µM
CC50 [2]: > 100 µM

CC(C)(O)[C@H]1O[C@@H](n2ccc3c(N)ncnc32)[C@](C)(F)[C@@H]1O [Compound 30]
EC50 [1, 4]: > 100 µM
CC50 [2]: > 100 µM

CC(C)(O)[C@H]1O[C@@H](n2ccc3c(N)ncnc32)[C@](C)(O)[C@@H]1O [Compound 31]
EC50 [1, 4]: > 100 µM
CC50 [2]: > 100 µM

CC(C)OC(=O)[C@H](C)NP(=O)(Oc1cccc2ccccc12)OC(C)(C)[C@H]1O[C@@H](n2ccc3c(N)ncnc32)[C@](C)(F)[C@@H]1O (some centres unmarked) [Compound 32]
EC50 [1, 7]: > 20 µM
CC50 at 3 day [3]: > 20 µM

CC(O)[C@H]1O[C@@H](n2cc(-c3cc[nH]n3)c3c(N)ncnc32)[C@](C)(F)[C@@H]1O (some centres unmarked) [Compound 33]
EC50 [1, 6]: > 100 µM
CC50 at 3 day [3]: > 100 µM

COC(=O)[C@H](C)NP(=O)(Oc1ccccc1)O[C@H](C)[C@H]1O[C@@H](n2ccc3c(N)ncnc32)[C@](C)(O)[C@@H]1O (some centres unmarked) [Compound 34]
EC50 [1, 7]: > 100 µM
CC50 at 3 day [3]: > 100 µM

COC(=O)[C@H](C)NP(=O)(Oc1ccccc1)O[C@@H](C)[C@H]1O[C@@H](n2ccc3c(N)ncnc32)[C@](C)(O)[C@@H]1O (some centres unmarked) [Compound 35]
EC50 [1, 7]: > 100 µM
CC50 at 3 day [3]: > 100 µM

CCOC(=O)[C@H](C)NP(=O)(Oc1ccccc1)O[C@H](C)[C@H]1O[C@@H](n2ccc3c(N)ncnc32)[C@](C)(O)[C@@H]1O (some centres unmarked) [Compound 38]
EC50 [1, 7]: > 100 µM
CC50 at 3 day [3]: > 100 µM

CCOC(=O)[C@H](C)NP(=O)(Oc1ccccc1)O[C@@H](C)[C@H]1O[C@@H](n2ccc3c(N)ncnc32)[C@](C)(O)[C@@H]1O (some centres unmarked) [Compound 39]
EC50 [1, 7]: > 100 µM
CC50 at 3 day [3]: > 100 µM

COC(=O)[C@H](C)NP(=O)(Oc1ccccc1)OC(C)[C@H]1O[C@@H](n2ccc3c(N)ncnc32)[C@](C)(O)[C@@H]1O (some centres unmarked) [Compound 40]
EC50 [1, 7]: 21 µM
CC50 at 3 day [3]: > 100 µM

CC(OP(=O)(N[C@@H](C)C(=O)OCC(C)(C)C)Oc1ccccc1)[C@H]1O[C@@H](n2ccc3c(N)ncnc32)[C@](C)(O)[C@@H]1O (some centres unmarked) [Compound 41]
EC50 [1, 7]: 18 µM
CC50 at 3 day [3]: > 100 µM

COC(=O)[C@H](C)NP(=O)(Oc1cccc2ccccc12)OC(C)[C@H]1O[C@@H](n2ccc3c(N)ncnc32)[C@](C)(O)[C@@H]1O (some centres unmarked) [Compound 42]
EC50 [1, 7]: 4.8 µM
CC50 at 3 day [3]: > 100 µM

CC(C)OC(=O)[C@H](C)NP(=O)(Oc1ccccc1)OC(C)[C@H]1O[C@@H](n2ccc3c(N)ncnc32)[C@](C)(O)[C@@H]1O (some centres unmarked) [Compound 43]
EC50 [1, 7]: 14 µM
CC50 at 3 day [3]: 98 µM

CCCCOC(=O)[C@H](C)NP(=O)(Oc1cccc2ccccc12)OC(C)[C@H]1O[C@@H](n2ccc3c(N)ncnc32)[C@](C)(O)[C@@H]1O (some centres unmarked) [Compound 44]
EC50 ([1]; read-out: 1b EC50, replicon cells, 3-day incubation, replicon RNA by real time PCR (Taqman)): 2 µM
CC50 at 3 day [3]: 51 µM
